According to patent publication US20050197338A1, “Substituted pyrazole urea compounds for the treatment of inflammation” (priority 2003, published 2005):

The compounds below were run against T1, human IKK-2 (rhIKK-2 homodimer) (Homo sapiens, UniProt O14920) (assay: IKK-2 Resin Enzyme Assay (Human IKK-2 Enzyme Assay)). Details: human IKK-2, resin enzyme assay; read-out: IC50 (μM) hIKK-2.
T1 construct: FLAG (DYKDDDDKD) (C); made in house; host or cells: insect cells (baculovirus, pFastBac)
T1 sequence (O14920 1-756): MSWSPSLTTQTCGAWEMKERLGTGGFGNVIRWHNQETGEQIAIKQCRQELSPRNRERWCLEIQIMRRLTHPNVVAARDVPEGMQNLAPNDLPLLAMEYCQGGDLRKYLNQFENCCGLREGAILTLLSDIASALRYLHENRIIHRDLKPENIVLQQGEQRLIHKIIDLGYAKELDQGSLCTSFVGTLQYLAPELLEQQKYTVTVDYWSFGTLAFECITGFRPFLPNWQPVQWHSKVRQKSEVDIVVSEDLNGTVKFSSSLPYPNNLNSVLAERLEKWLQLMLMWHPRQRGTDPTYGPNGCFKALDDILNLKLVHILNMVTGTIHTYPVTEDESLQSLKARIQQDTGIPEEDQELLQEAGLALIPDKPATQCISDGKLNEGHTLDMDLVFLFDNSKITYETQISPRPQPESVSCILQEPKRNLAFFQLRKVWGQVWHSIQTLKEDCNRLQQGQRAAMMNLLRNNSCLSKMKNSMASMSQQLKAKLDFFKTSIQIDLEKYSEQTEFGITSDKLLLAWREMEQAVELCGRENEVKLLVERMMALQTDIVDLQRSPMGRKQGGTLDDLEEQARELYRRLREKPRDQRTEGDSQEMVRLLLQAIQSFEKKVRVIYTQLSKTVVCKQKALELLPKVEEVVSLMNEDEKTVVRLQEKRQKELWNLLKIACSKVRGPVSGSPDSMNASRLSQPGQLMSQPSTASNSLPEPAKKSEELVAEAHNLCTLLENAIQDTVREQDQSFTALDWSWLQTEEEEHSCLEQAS
Format: biochemical
How it was run: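 C-terminally FLAG-tagged human IKK-2 homodimer, baculovirus-expressed in insect cells and anti-FLAG purified. Reaction mix: 5 μM biotinylated IκBα peptide (Ser32/Ser36 region), 1 μM ATP with [γ-33P]ATP, 2 mM MgCl2, 2 mM MnCl2, 10 mM NaF, 1 mM DTT, 25 mM HEPES pH 7.6. Incubated 30 min at 25 °C; IC50 derived.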

Compound | IC50
NC(=O)Nc1cn(-c2ccc(-c3ccc(C(N)=O)cc3)cc2)nc1C(N)=O [Example 149, 4-[(aminocarbonyl)amino]-1-[4′-(aminocarbonyl)-1,1′-biphenyl-4-yl]-1H-pyrazole-3-carboxamide] | 0.05 µM
COc1ccc(CNC(=O)c2ccc(-c3ccc(-n4cc(NC(N)=O)c(C(N)=O)n4)cc3)cc2F)cc1 [Example 150, 4-[(aminocarbonyl)amino]-1-(3′-fluoro-4′-{[(4-methoxybenzyl)amino]carbonyl}-1,1′-biphenyl-4-yl)-1H-pyrazole-3-carboxamide] | 0.63 µM
NC(=O)Nc1cn(-c2ccc(-c3ccc(C(=O)NCc4ccccc4)c(F)c3)cc2)nc1C(N)=O [Example 151, 4-[(aminocarbonyl)amino]-1-{4′-[(benzylamino)carbonyl]-3′-fluoro-1,1′-biphenyl-4-yl}-1H-pyrazole-3-carboxamide] | 0.31 µM
CNC(=O)c1ccc(-c2ccc(-n3cc(NC(N)=O)c(C(N)=O)n3)cc2)cc1F [Example 152, 4-[(aminocarbonyl)amino]-1-{3′-fluoro-4′-[(methylamino)carbonyl]-1,1′-biphenyl-4-yl}-1H-pyrazole-3-carboxamide] | 0.11 µM
COc1cccc(CNC(=O)c2ccc(-c3ccc(-n4cc(NC(N)=O)c(C(N)=O)n4)cc3)cc2F)c1 [Example 153, 4-[(aminocarbonyl)amino]-1-(3′-fluoro-4′-{[(3-methoxybenzyl)amino]carbonyl}-1,1′-biphenyl-4-yl)-1H-pyrazole-3-carboxamide] | 0.32 µM
CN(Cc1ccc(F)cc1)C(=O)c1ccc(-c2ccc(-n3cc(NC(N)=O)c(C(N)=O)n3)cc2)cc1F [Example 158, 4-[(aminocarbonyl)amino]-1-(3′-fluoro-4′-{[(4-fluorobenzyl)(methyl)amino]carbonyl}-1,1′-biphenyl-4-yl)-1H-pyrazole-3-carboxamide] | 4.04 µM
N#CCOc1cccc(-c2ccc(-n3cc(NC(N)=O)c(C(N)=O)n3)cc2)c1 [Example 166, 4-[(aminocarbonyl)amino]-1-[3′-(cyanomethoxy)-1,1′-biphenyl-4-yl]-1H-pyrazole-3-carboxamide] | 0.38 µM
N#CCOc1ccccc1-c1ccc(-n2cc(NC(N)=O)c(C(N)=O)n2)cc1 [Example 167, 4-[(aminocarbonyl)amino]-1-[2′-(cyanomethoxy)-1,1′-biphenyl-4-yl]-1H-pyrazole-3-carboxamide] | 0.5 µM
CC(C#N)Oc1cccc(-c2ccc(-n3cc(NC(N)=O)c(C(N)=O)n3)cc2)c1 (stereo not drawn) [Example 169, 4-[(aminocarbonyl)amino]-1-[3′-(1-cyanoethoxy)-1,1′-biphenyl-4-yl]-1H-pyrazole-3-carboxamide] | 1.83 µM
N#CCOc1ccccc1-c1cccc(-n2cc(NC(N)=O)c(C(N)=O)n2)c1 [Example 176, 4-[(aminocarbonyl)amino]-1-[2′-(cyanomethoxy)-1,1′-biphenyl-3-yl]-1H-pyrazole-3-carboxamide] | 0.18 µM
N#CCOc1cccc(-c2ccc(-n3cc(NC(N)=O)c(C(N)=O)n3)c(F)c2)c1 [Example 179, 4-[(aminocarbonyl)amino]-1-[3′-(cyanomethoxy)-3-fluoro-1,1′-biphenyl-4-yl]-1H-pyrazole-3-carboxamide] | 0.51 µM
CC(C#N)Oc1ccc(F)cc1-c1ccc(-n2cc(NC(N)=O)c(C(N)=O)n2)cc1 (stereo not drawn) [Example 180, 4-[(aminocarbonyl)amino]-1-[2′-(1-cyanoethoxy)-5′-fluoro-1,1′-biphenyl-4-yl]-1H-pyrazole-3-carboxamide] | 0.228 µM
CN(C)C(=O)COc1cccc(-c2ccc(-n3cc(NC(N)=O)c(C(N)=O)n3)cc2)c1 [Example 181, 4-[(aminocarbonyl)amino]-1-{3′-[2-(dimethylamino)-2-oxoethoxy]-1,1′-biphenyl-4-yl}-1H-pyrazole-3-carboxamide] | 0.105 µM

Further compounds by falling IC50, results first:

IC50 | Compound
11.2 µM | CC(C)(C)OC(=O)COc1ccc(F)cc1-c1ccc(-n2cc(NC(N)=O)c(C(N)=O)n2)cc1 [Example 182, tert-butyl [(4′-{3-(aminocarbonyl)-4-[(aminocarbonyl)amino]-1H-pyrazol-1-yl}-5-fluoro-1,1′-biphenyl-2-yl)oxy]acetate]
8.08 µM | NC(=O)Nc1cn(-c2ccc(-c3ccc(C(=O)NCc4ccccc4F)c(F)c3)cc2)nc1C(N)=O [Example 157, 4-[(aminocarbonyl)amino]-1-(3′-fluoro-4′-{[(2-fluorobenzyl)amino]carbonyl}-1,1′-biphenyl-4-yl)-1H-pyrazole-3-carboxamide]
6.84 µM | NC(=O)Nc1cn(-c2ccc(-c3cccc(OCc4ccncc4)c3)cc2)nc1C(N)=O [Example 171, 4-[(aminocarbonyl)amino]-1-[3′-(pyridin-4-ylmethoxy)-1,1′-biphenyl-4-yl]-1H-pyrazole-3-carboxamide]
5.99 µM | CC(=O)OCc1cccc(-c2ccc(-n3cc(NC(N)=O)c(C(N)=O)n3)cc2)c1 [Example 165, 4′-{3-(aminocarbonyl)-4-[(aminocarbonyl)amino]-1H-pyrazol-1-yl}-1,1′-biphenyl-3-yl)methyl acetate]
5.97 µM | NC(=O)Nc1cn(-c2ccc(-c3ccc(C(=O)NC4CCCc5ccccc54)c(F)c3)cc2)nc1C(N)=O (stereo not drawn) [Example 159, 4-[(aminocarbonyl)amino]-1-{3′-fluoro-4′-[(1,2,3,4-tetrahydronaphthalen-1-ylamino)carbonyl]-1,1′-biphenyl-4-yl}-1H-pyrazole-3-carboxamide]
1.99 µM | NC(=O)Nc1cn(-c2ccc(-c3cccc(OCc4ccccn4)c3)cc2)nc1C(N)=O [Example 168, 4-[(aminocarbonyl)amino]-1-[3′-(pyridin-2-ylmethoxy)-1,1′-biphenyl-4-yl]-1H-pyrazole-3-carboxamide]
1.58 µM | NC(=O)Nc1cn(-c2ccc(-c3cccc(OCc4cccnc4)c3)cc2)nc1C(N)=O [Example 170, 4-[(aminocarbonyl)amino]-1-[3′-(pyridin-3-ylmethoxy)-1,1′-biphenyl-4-yl]-1H-pyrazole-3-carboxamide]
1.36 µM | NC(=O)Nc1cn(-c2ccc(-c3cc(F)ccc3OCC(=O)N3CCOCC3)cc2)nc1C(N)=O [Example 161, 4-[(aminocarbonyl)amino]-1-[5′-fluoro-2′-(2-morpholin-4-yl-2-oxoethoxy)-1,1′-biphenyl-4-yl]-1H-pyrazole-3-carboxamide]
0.61 µM | NC(=O)Nc1cn(-c2ccc(-c3ccc(C(=O)NCc4cccc(F)c4)c(F)c3)cc2)nc1C(N)=O [Example 156, 4-[(aminocarbonyl)amino]-1-(3′-fluoro-4′-{[(3-fluorobenzyl)amino]carbonyl}-1,1′-biphenyl-4-yl)-1H-pyrazole-3-carboxamide]
0.45 µM | NC(=O)Nc1cn(-c2ccc(-c3ccc(C(=O)NCc4ccc(F)cc4)c(F)c3)cc2)nc1C(N)=O [Example 155, 4-[(aminocarbonyl)amino]-1-(3′-fluoro-4′-{[(4-fluorobenzyl)amino]carbonyl}-1,1′-biphenyl-4-yl)-1H-pyrazole-3-carboxamide]
0.26 µM | COc1ccccc1CNC(=O)c1ccc(-c2ccc(-n3cc(NC(N)=O)c(C(N)=O)n3)cc2)cc1F [Example 154, 4-[(aminocarbonyl)amino]-1-(3′-fluoro-4′-{[(2-methoxybenzyl)amino]carbonyl}-1,1′-biphenyl-4-yl)-1H-pyrazole-3-carboxamide]
